Test system: tendon tissue damaged due to ruptured tendon fibrils and hematoma
Assay: Oral calcium dobesilate therapy of tendon damage in horses, sonographic follow-up
Assay type: in vivo, horse
Conditions: adult horses; 1400 mg with the food twice a day (corresponding to 4 mg/kg body weight/day); four months; sonography after one, two and four months; horses walked
Protocol: Calcium dobesilate was administered with the food in a dose of 1400 mg per adult horse, twice a day each (corresponding to 4 mg/kg body weight/day). The therapy is carried out for four months. Therapy progress is documented sonographically after one month, after two months and after four months. During therapy, the horses are walked.

Compound: O=S(=O)([O][Ca][O]S(=O)(=O)c1cc(O)ccc1O)c1cc(O)ccc1O [Calcium dobesilate, calcium dobesilate]
- Sonographic therapy progression (structure and density of the tendon in the ultrasound image): the tendon sections hypoechogenic at the beginning of therapy show a physiological structure and density of the tendon in the ultrasound image at the end of therapy

Source: US20080223379A1, “METHODS AND COMPOSITIONS FOR THE TREATMENT OR PROPHYLAXIS OF TENDON AND LIGAMENT INJURY” (DOBAVET GmbH, priority 2007, published 2008)
